In patent publication US12564610B2, “Human periventricular endothelial cell therapy for neuropsychiatric disorders” (The McLean Hospital Corporation, priority 2019, dated 2026):

Tests used:
Assay type in all cases: cell-based
[1] = test system: GABAergic interneurons on pre-incubated human periventricular endothelial cells; assay: Interneuron migration over chemical-pre-treated periventricular endothelial cells; conditions: interneurons migrate 48 hours, vs control
Procedure: Migration assays with chemicals: To assess the roles of GABA or SDF-1/CXCL12 signaling on migration of human periventricular endothelial cells, 10^4 cells were seeded in one well insert and allowed to migrate in the presence of respective agonist or antagonist in periventricular endothelial cell medium (without GABA). After five days, cells were fixed, stained with anti-human CD31 antibody (Millipore), imaged and the distance migrated was calculated using ImageJ. To examine the effect of endothelial GABA or endothelial SDF-1/CXCL12 signaling on interneuron migration, human periventricular endothelial cells were seeded in 35 mm dish (10^5 cells/cm^2) and incubated with respective chemical for a period of 48 hours. 3×10^4 GABAergic interneurons were seeded on top of the periventricular endothelial cells using a one-well insert, and allowed to migrate over the pre-incubated periventricular endothelial cells for 2 days. Migration of neurons was assayed by staining with anti-human β-Tubulin antibody (Biolegend) and imaged. The concentration of chemicals used in the assays are as follows: muscimol (Sigma) 100 uM, BMI (Sigma) 100 uM, AMD3100 (Sigma) 50 μM, recombinant human SDF-1α (Peprotech) 40 nM. The chemicals were kept at −20° as concentrated stock solutions and diluted on the day of the experiment.

[2] = test system: human periventricular endothelial cells; assay: Long-distance migration assay of periventricular endothelial cells with chemicals; conditions: compared to control (no chemicals added), five days
From the text: Long-distance migration assay: In preparation for migration assays, two-well silicone culture inserts (from ibidi GmbH, Cat #80209) were converted into one-well inserts by cutting with a sharp, sterile blade. Individual one-well inserts were placed in the middle of a 35 mm dish coated with Poly-Ornithine and Laminin. The boundary of the insert was marked on the back of each dish with a thin marker. For this assay, periventricular endothelial cells, control endothelial cells and endothelial cells derived without GABA and WNT7A were used at passage number P2 or P3, while GABA interneurons cultured for six weeks were used. 10^4 periventricular endothelial cells or endothelial cells derived without GABA and WNT7A were seeded in each insert in periventricular endothelial cell medium without GABA. Same number of GABAergic interneurons or control endothelial cells were seeded per insert in their respective manufacturer's recommended medium. The insert was removed after 48 hours and cells cultured for five days. After 5 days, cells were fixed and fluorescently labeled with an anti-human CD31 antibody (for endothelial cells) or an anti-human β-Tubulin antibody (for neurons) and DAPI. The distance between each cell body and the edge of the insert-boundary was measured using ImageJ.
Migration assays with chemicals: To assess the roles of GABA or SDF-1/CXCL12 signaling on migration of human periventricular endothelial cells, 10^4 cells were seeded in one well insert and allowed to migrate in the presence of respective agonist or antagonist in periventricular endothelial cell medium (without GABA). After five days, cells were fixed, stained with anti-human CD31 antibody (Millipore), imaged and the distance migrated was calculated using ImageJ. To examine the effect of endothelial GABA or endothelial SDF-1/CXCL12 signaling on interneuron migration, human periventricular endothelial cells were seeded in 35 mm dish (10^5 cells/cm^2) and incubated with respective chemical for a period of 48 hours. […]

[3] = test system: human periventricular endothelial cells; assay: Junction protein immunostaining in differentiating periventricular endothelial cells (effect of GABA / WNT7A)
Procedure: Endothelial cell differentiation and culture: H9 cells (WiCell, Madison, WI) were maintained in E8 media (Thermo Fisher Scientific) on Matrigel (BD Biosciences)-coated plates and passaged once a week with 0.5 mM EDTA (Thermo Fisher Scientific) in PBS. On day 0 of differentiation, H9 cells were dissociated with Accutase (Sigma), and plated at a density of 10^5 cells/cm^2 on Matrigel-coated plates. […] Rock inhibitor, Y-27632 (1004, Selleck Chemicals) was added for first 24 hours to improve cell survival. On day 2, cells were switched to vascular inducing medium composed of E6 medium (Thermo Fisher Scientific) containing BMP4 (50 ng/ml), SB431542 (5 μM, Cayman Chemicals), GABA (5 μM), WNT7A (500 ng/ml), FGF2 (100 ng/ml, Peprotech) and VEGF-A (50 ng/ml, Peprotech). On day 5, cells were split at 1:6 ratio using Accutase and plated on Matrigel-coated plates in periventricular endothelial cell (PVEC) medium consisting of E6 with VEGF-A (50 ng/ml), FGF2 (100 ng/ml) and GABA (5 μM). On day 7, periventricular endothelial cells were isolated from the mixed population by fluorescence-activated cell sorting (FACS) and seeded on Matrigel-coated plates in periventricular endothelial cells medium at a density of 6×10^5 cells/cm^2. For routine culturing, periventricular endothelial cells were dissociated using Accutase, and seeded on Matrigel-coated plates at a density of 6×10^5 cells/cm^2 (high density seeding) or 1.2×10^5 cells/cm^2 (low density seeding), with medium change every alternate day. Periventricular endothelial cells were cryopreserved after at least one passaging in freezing medium composed of 90% periventricular endothelial cells medium and 10% DMSO. As a source of neurons, we used human iPSC-derived GABAergic neurons from Cellular Dynamics (Madison, WI, Cat #R1013). As control for microarray analysis and for cell migration assays, we used human-iPSC derived endothelial cells from Cellular Dynamics (Madison WI, Cat #R1022), whose gene expression profile is similar to human aortic endothelial cells (HAECs; https://fujifilmedi.com/assets/CDI130925MIPTEC04.pdf). […]

[4] = endothelial cells treated 48 hours with 100 μM

Structure (SMILES): c1cc(CN2CCCNCCNCCCNCC2)ccc1CN1CCCNCCNCCCNCC1 [AMD3100]
- interneuron migration on pre-treated periventricular endothelial cells ([1]; endothelial cells treated 48 hours with 50 μM): No discernible effect on interneuron migration
- periventricular endothelial cell migration ([2]; 50 μM): no significant effect on endothelial cell migration

Structure (SMILES): C[N+]1(C)CCc2cc3c(cc2[C@H]1[C@@H]1OC(=O)c2c1ccc1c2OCO1)OCO3.[I-] [BMI, bicuculline methiodide]
- interneuron migration on pre-treated periventricular endothelial cells [1, 4]: decreased migration
- periventricular endothelial cell migration ([2]; 100 μM): significant decrease in cell migration

Structure (SMILES): NCCCC(=O)O [GABA, gamma amino-butyric acid]
- tight junction formation (Claudin5 and ZO-1 staining) ([3]; 5 uM GABA, in comparison to 50 μM or 100 μM): increases tight junction formation
- localization of tight junction proteins Claudin 5 and ZO-1 ([3]; 50 uM or 100 μM GABA): disrupted the localization of tight junction proteins Claudin 5 and ZO-1
- expression of VE-Cadherin ([3]; increase in GABA levels (5, 50, 100 μM)): not affected by increase in GABA levels

Structure (SMILES): NCc1cc(=O)[nH]o1 [muscimol]
- interneuron migration on pre-treated periventricular endothelial cells [1, 4]: significantly higher migratory ability
- periventricular endothelial cell migration ([2]; 100 μM): significant increase in the number of migrating cells
